Patent publication US12404283B2, “c-MYC mRNA translation modulators and uses thereof in the treatment of cancer” (Anima Biotech Inc., priority 2022, dated 2025)

Each molecule was assayed on c-Myc (assay: c-Myc immunofluorescence assay). Settings: A549 cells, 24 hours treatment, anti-c-Myc immunofluorescence.
Type: cell-based, human
Method in brief: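 A549 cells grown 48 h, exposed 24 h to rising compound concentrations, then fixed, permeabilised and stained for c-Myc plus DAPI. Nuclear-segmented c-Myc fluorescence quantified by high-content imaging at 20×; EC50 from logistic dose–response fits.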

| Structure (SMILES) | Myc Efficacy (−LogEC50) |
| --- | --- |
| NC1(c2ccc(-c3cn4c(n3)sc3cc(C(=O)NCCCN5CCC(F)CC5)ccc34)c(F)c2)CC1 [Compound 474, 2-(4-(1-aminocyclopropyl)-2-fluorophenyl)-N-(3-(4-fluoropiperidin-1-yl)propyl)benzo[d]imidazo[2,1-b]thiazole-7-carboxamide] | +++ (+++ ≥6) |
| C#CCCC1(CCN2CC[C@H](CNC(=O)c3ccc4c(c3)sc3nc(-c5ccc(C)cc5)cn34)C2)N=N1 [compound 324, (R)-N-((1-(2-(3-(but-3-yn-1-yl)-3H-diazirin-3-yl)ethyl)pyrrolidin-3-yl)methyl)-2-(p-tolyl)benzo[d]imidazo[2,1-b]thiazole-7-carboxamide] | ++ (++ ≥5 and <6) |
| CNC(=O)c1ccc(-c2cn3c(n2)sc2cc(C(=O)NCC4CCCO4)ccc23)cc1 (stereo not drawn) [compound 204, 2-(4-(methylcarbamoyl)phenyl)-N-((tetrahydrofuran-2-yl)methyl)benzo[d]imidazo [2,1-b]thiazole-7-carboxamide] | + (+ >3 and <5) |
| O=C1CNC(c2ccc(-c3cn4c(n3)sc3cc(C(=O)NCCCN5CCC(F)CC5)ccc34)c(F)c2)C1 (stereo not drawn) [Compound 507, 2-(2-fluoro-4-(4-oxopyrrolidin-2-yl)phenyl)-N-(3-(4-fluoropiperidin-1-yl)propyl)benzo[d]imidazo[2,1-b]thiazole-7-carboxamide] | +++ (+++ ≥6) |
| NCc1ccc(-c2nc3sc4cc(C(=O)NCCCN5CCCCC5)ccc4n3n2)cc1 [compound 392, 2-(4-(aminomethyl)phenyl)-N-(3-(piperidin-1-yl)propyl)benzo[4,5]thiazolo [3,2-b][1,2,4]triazole-6-carboxamide] | +++ (+++ ≥6) |
| CNC(=O)c1ccc(-c2cn3c(n2)sc2cc(C(=O)NC4CC(=O)N(C)C4)ccc23)cc1 (stereo not drawn) [compound 236, N-(1-methyl-5-oxopyrrolidin-3-yl)-2-(4-(methylcarbamoyl)phenyl) benzo[d]imidazo[2,1-b]thiazole-7-carboxamide] | − (− ≤3) |
| CCN(CC)CCCNC(=O)c1ccc2c(c1)sc1nc(-c3ccccc3)cn12 [compound 107, N-(3-(diethylamino)propyl)-2-phenylbenzo[d]imidazo [2,1-b]thiazole-7-carboxamide] | ++ (++ ≥5 and <6) |
| CNC(=O)c1ccc(-c2cn3c(n2)sc2cc(C(=O)NCC(C)(C)N4CCOCC4)ccc23)cc1 [compound 244, N-(2-methyl-2-morpholinopropyl)-2-(4-(methylcarbamoyl)phenyl) benzo[d]imidazo[2,1-b] thiazole-7-carboxamide] | − (− ≤3) |
| CCN(CC)CCCNC(=O)c1ccc2c(c1)sc1nc(-c3ccc(C(=O)NC4CCN(C)C4)cc3)cn12 (stereo not drawn) [compound 286, N-(3-(diethylamino)propyl)-2-(4-((1-methylpyrrolidin-3-yl)carbamoyl)phenyl)benzo [d]imidazo[2,1-b]thiazole-7-carboxamide] | ++ (++ ≥5 and <6) |
| O=C(NCCCN1CCCCC1)c1ccc2c(c1)sc1nc(-c3ccc(CNC4CC4)cc3F)cn12 [compound 368, 2-(4-((cyclopropylamino)methyl)-2-fluorophenyl)-N-(3-(piperidin-1-yl)propyl)benzo[d]imidazo [2,1-b]thiazole-7-carboxamide] | +++ (+++ ≥6) |
| CCN(CC)CCCNC(=O)c1ccc2c(c1)sc1nc(-c3ccncc3)cn12 [compound 161, N-(3-(diethylamino)propyl)-2-(pyridin-4-yl)benzo[d]imidazo[2,1-b]thiazole-7-carboxamide] | +++ (+++ ≥6) |
| O=C(NC1CCOCC1)c1ccc2c(c1)sc1nc(-c3ccc(C4CNCCO4)cc3F)cn12 (stereo not drawn) [Compound 535, 2-(2-fluoro-4-(morpholin-2-yl)phenyl)-N-(tetrahydro-2H-pyran-4-yl)benzo[d]imidazo[2,1-b]thiazole-7-carboxamide] | +++ (+++ ≥6) |
| CCN(CC)CCCNC(=O)c1ccc2c(c1)sc1nc(-c3ccccc3F)cn12 [compound 129, N-(3-(diethylamino)propyl)-2-(2-fluorophenyl)benzo[d] imidazo[2,1-b]thiazole-7-carboxamide] | ++ (++ ≥5 and <6) |
| CNC(=O)c1ccc(-c2cn3c(n2)sc2cc(C(=O)NC[C@H]4CCCN4)ccc23)cc1 [compound 224, (R)-2-(4-(methylcarbamoyl)phenyl)-N-(pyrrolidin-2-ylmethyl)benzo[d]imidazo[2,1-b]thiazole-7-carboxamide] | − (− ≤3) |
| NCc1ccc(-c2nc3sc4cc(C(=O)NCCCN5CCC(F)CC5)ccc4n3n2)c(F)c1 [compound 390, 2-(4-(aminomethyl)-2-fluorophenyl)-N-(3-(4-fluoropiperidin-1-yl)propyl)benzo[4,5]thiazolo [3,2-b][1,2,4]triazole-6-carboxamide] | ++ (++ ≥5 and <6) |
| NCc1ccc(-c2cn3c(n2)sc2cc(C(=O)NCCCN4CCCCC4)ccc23)cc1F [compound 375, 2-(4-(aminomethyl)-3-fluorophenyl)-N-(3-(piperidin-1-yl)propyl)benzo[d]imidazo [2,1-b]thiazole-7-carboxamide] | +++ (+++ ≥6) |
| CCN1CCC(CNC(=O)c2ccc3c(c2)sc2nc(-c4ccc(C(=O)NC)cc4)cn23)C1 (stereo not drawn) [compound 233, N-((1-ethylpyrrolidin-3-yl)methyl)-2-(4-(methylcarbamoyl)phenyl) benzo[d]imidazo[2,1-b]thiazole-7-carboxamide] | − (− ≤3) |
| CCN(CC)CCCNC(=O)c1ccc2c(c1)sc1nc(-c3ccc(C4(N)CC4)cc3)cn12 [compound 318, 2-(4-(1-aminocyclopropyl)phenyl)-N-(3-(diethylamino)propyl)benzo [d]imidazo[2,1-b]thiazole-7-carboxamide] | ++ (++ ≥5 and <6) |
| Cc1cccc(-c2cn3c(n2)sc2cc(C(=O)NCCCN4CCC(F)CC4)ccc23)c1 [compound 137, N-(3-(4-fluoropiperidin-1-yl)propyl)-2-(m-tolyl)benzo[d]imidazo[2,1-b]thiazole-7-carboxamide] | ++ (++ ≥5 and <6) |
| Cc1cccc(-c2cn3c(n2)sc2cc(C(=O)N[C@H]4C[C@@H](N5CCCCC5)C4)ccc23)c1 [compound 138, N-((1s,3s)-3-(piperidin-1-yl)cyclobutyl)-2-(m-tolyl)benzo[d]imidazo[2,1-b]thiazole-7-carboxamide] | ++ (++ ≥5 and <6) |
| O=C(N[C@@H]1CCOC1)c1ccc2c(c1)sc1nc(-c3ccc(C4CCCN4)cc3F)cn12 (stereo partly drawn) [524R, 2-(2-fluoro-4-(pyrrolidin-2-yl)phenyl)-N-((R)-tetrahydrofuran-3-yl)benzo[d]imidazo[2,1-b]thiazole-7-carboxamide] | ++ (++ ≥5 and <6) |
| CCN(CC)CCCNC(=O)c1ccc2c(c1)sc1nc(-c3ccc(C(=O)NCCOC)cc3)cn12 [compound 284, N-(3-(diethylamino)propyl)-2-(4-((2-methoxyethyl)carbamoyl)phenyl)benzo[d]imidazo[2,1-b]thiazole-7-carboxamide] | + (+ >3 and <5) |
| CNC(=O)c1ccc(-c2cn3c(n2)sc2cc(C(=O)N[C@H]4CCN(C5CCOCC5)C4)ccc23)cc1 [compound 209, (S)-2-(4-(methylcarbamoyl)phenyl)-N-(1-(tetrahydro-2H-pyran-4-yl)pyrrolidin-3-yl)benzo[d]imidazo[2,1-b]thiazole-7-carboxamide] | + (+ >3 and <5) |
| O=C1CC[C@H](c2ccc(-c3cn4c(n3)sc3cc(C(=O)NCCCN5CCC(F)CC5)ccc34)c(F)c2)N1 [Compound 432R, (R)-2-(2-fluoro-4-(5-oxopyrrolidin-2-yl)phenyl)-N-(3-(4-fluoropiperidin-1-yl)propyl)benzo[d]imidazo[2,1-b]thiazole-7-carboxamide] | +++ (+++ ≥6) |
| CCN(CC)CCCNC(=O)c1ccc2c(c1)sc1nc(-c3ccc(CN)cc3F)cn12 [compound 298, 2-(4-(aminomethyl)-2-fluorophenyl)-N-(3-(diethylamino)propyl)benzo [d]imidazo[2,1-b]thiazole-7-carboxamide] | +++ (+++ ≥6) |
| O=C(NCCCN1CCCCC1)c1ccc2c(c1)sc1nc(-c3ccccc3)cn12 [compound 101, 2-phenyl-N-(3-(piperidin-1-yl)propyl)benzo[d]imidazo[2,1-b]thiazole-7-carboxamide] | +++ (+++ ≥6) |
| CNC(=O)c1ccc(-c2cn3c(n2)sc2cc(C(=O)NCCCN4CCC(F)CC4)ccc23)cc1 [compound 309, N-(3-(4-fluoropiperidin-1-yl)propyl)-2-(4-(methylcarbamoyl)phenyl) benzo[d]imidazo[2,1-b]thiazole-7-carboxamide] | ++ (++ ≥5 and <6) |
| NCc1ccc(-c2nc3sc4cc(C(=O)NCCCN5CCCCC5)ccc4n3n2)c(F)c1 [compound 387, 2-(4-(aminomethyl)-2-fluorophenyl)-N-(3-(piperidin-1-yl)propyl)benzo[4,5]thiazolo [3,2-b][1,2,4]triazole-6-carboxamide] | +++ (+++ ≥6) |
| O=C(NCCCN1CCC(F)CC1)c1ccc2c(c1)sc1nc(-c3ccc([C@@H]4CCCN4)cc3F)cn12 [compound 420, (S)-2-(2-fluoro-4-(pyrrolidin-2-yl)phenyl)-N-(3-(4-fluoropiperidin-1-yl)propyl)benzo[d]imidazo [2,1-b]thiazole-7-carboxamide] | +++ (+++ ≥6) |
| CCN(CC)CCCNC(=O)c1ccc2c(c1)sc1nc(-c3cncc(C)c3)cn12 [compound 165, N-(3-(diethylamino)propyl)-2-(5-methylpyridin-3-yl)benzo[d]imidazo[2,1-b]thiazole-7-carboxamide] | + (+ >3 and <5) |
